Assays:
482 bp of human β-globin = assay: PCR amplification of 482 bp of human β-globin with dUTP in place of dTTP; format: biochemical; parameters: key to Results of PCR in the presence of dUTP 481 bp: A: Amplified; B: Amplified (faint band); C: Not amplified; details: for Results of PCR in the presence of dUTP 481 bp: dTTP replaced by dUTP, 35 cycles; for PCR amplification of 482 bp with dUTP: 100% dUTP instead of dTTP (FIGS. 5 to 8)
Protocol: 482 bp of human β-globin was amplified to compare the amplification difference between the case of using dTTP and the case of using dUTP in PCR, and the sensitivity to dUTP was examined. For amplification, each enzyme was used after being mixed with 1 μg of a KOD antibody per U of the enzyme. For PCR, components included in KOD-Plus-Ver. 2 (produced by Toyobo Co. Ltd.) were used. General dNTPs (dATP, dTTP, dCTP, dGTP) in an amount of 0.2 mM were added to 50 μl of individual reaction solutions, and dNTPs (dATP, dUTP, dCTP, dGTP) in an amount of 0.2 mM in which dTTP was replaced by dUTP were added to 50 μl of individual reaction solutions. The reaction solutions contained 1× PCR buffer, 1.5 mM MgSO4, primers represented by SEQ ID NOs: 27 and 28 in an amount of 15 pmol for amplifying […], 10 ng of human genomic DNA (produced by Roche), and 1 U of each respective enzyme mixed with the antibody. PCR was performed using a GeneAmp PCR system 9700 (produced by Applied Biosystems) on the following schedule: preliminary reaction at 94° C. for 2 minutes, followed by 35 cycles, each cycle consisting of 98° C. for 10 seconds and 68° C. for 1 minute. After the completion of each individual reaction, each of the resulting reaction solutions was analyzed using to a DNA-1000 kit for MultiNA (produced by Shimadzu Corporation) to confirm amplified DNA fragments. FIGS. 5 and 6 show the results.

[1] = tested on: 1.3 kbp, 2.8 kbp, and 3.6 kbp of human β-globin; assay: Amplification of long-chain DNA in PCR using dUTP; format: biochemical; parameters: key to Results of PCR in the presence of dUTP 1.3 kbp / Results of PCR in the presence of dUTP 2.8 kbp / Results of PCR in the presence of dUTP 3.6 kbp: A: Amplified; B: Amplified (faint band); C: Not amplified; details: dTTP replaced by dUTP, 35 cycles
Procedure, shortened: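 Enzymes (1 U, premixed with KOD antibody) amplified 1.3, 2.8 and 3.6 kbp β-globin from 10 ng human genomic DNA with 2 mM dNTPs having dUTP in place of dTTP, 1.5 mM MgSO4, 35 cycles (98° C. 10 s, 65° C. 30 s, 68° C. ~1 min/kbp). Taq control: 2.5 U, 94° C. denaturation. Yield judged by ethidium-stained agarose gel.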

Substance	Results of PCR in the presence of dUTP 481 bp (482 bp of human β-globin)	Results of PCR in the presence of dUTP 1.3 kbp [1]	Results of PCR in the presence of dUTP 2.8 kbp [1]	Results of PCR in the presence of dUTP 3.6 kbp [1]	PCR amplification of 482 bp with dUTP (482 bp of human β-globin)	PCR amplification of 482 bp with dUTP (482 bp of human β-globin; listed as V93K/Y7A)
KOD I142R/P36R: KOD I142R (exo(−)) mutant with P36R	A	A	A	A		
KOD D141A/E143A/V93K: KOD D141A/E143A (exo(−)) mutant with V93K	A	A	B	B		
KOD N210D/Y7A/V93K: KOD N210D (exo(−)) mutant with Y7A and V93K	A	A	A	A		
KOD N210D/P115Δ: KOD N210D (exo(−)) mutant lacking P115	C	C	C	C		
KOD H147E/V93K: KOD H147E (exo(+)) mutant with V93K	A	B	B	B		
KOD N210D/P36H: KOD N210D (exo(−)) mutant with P36H	A	A	A	A		
KOD D141A/E143A/Y7A/V93K: KOD D141A/E143A (exo(−)) mutant with Y7A and V93K	A	A	A	A		
KOD Y7A/P115Δ: modified KOD DNA polymerase with Y7A and lacking P115	C	C	C	C		
KOD N210D/V93K: KOD N210D (exo(−)) mutant with V93K	A	A	B	B		
KOD H147E/Y7A/P36R: KOD H147E (exo(+)) mutant with Y7A and P36R	A	A	A	B		
KOD Y7A/V93K: modified KOD DNA polymerase with Y7A and V93K	A	A	A	B	allowed for PCR amplification	greatly improve the amplification amount, compared to V93K
KOD P115Δ: modified KOD DNA polymerase lacking P115	C	C	C	C		
KOD H147E/Y7A/V93K: KOD H147E (exo(+)) mutant with Y7A and V93K	A	A	A	B		
KOD I142R/Y7A/P36R: KOD I142R (exo(−)) mutant with Y7A and P36R	A	A	A	B		
KOD H147E/Y7A/P36H: KOD H147E (exo(+)) mutant with Y7A and P36H	A	A	A	B		
KOD Y7A/P36R: modified KOD DNA polymerase with Y7A and P36R	A	A	A	B	allowed for PCR amplification	

Substance	Results of PCR in the presence of dUTP 481 bp (482 bp of human β-globin)	Results of PCR in the presence of dUTP 1.3 kbp [1]	Results of PCR in the presence of dUTP 2.8 kbp [1]	Results of PCR in the presence of dUTP 3.6 kbp [1]	PCR amplification of 482 bp with dUTP (482 bp of human β-globin)	PCR amplification of 482 bp with dUTP (482 bp of human β-globin; listed as V93K/Y7A)
KOD N210D/V93Q: KOD N210D (exo(−)) mutant with V93Q	A	C	C	C		
KOD D141A/E143A/Y7A: KOD D141A/E143A (exo(−)) mutant with Y7A	C	C	C	C		
KOD D141A/E143A/Y7A/P36R: KOD D141A/E143A (exo(−)) mutant with Y7A and P36R	A	A	A	A		
KOD H147E/P36R: KOD H147E (exo(+)) mutant with P36R	A	B	B	B		
KOD D141A/E143A/P36R: KOD D141A/E143A (exo(−)) mutant with P36R	A	A	A	A		
KOD H147E/Y7A/P115Δ: KOD H147E (exo(+)) mutant with Y7A and lacking P115	C	C	C	C		
KOD Y7A/P36H: modified KOD DNA polymerase with Y7A and P36H	A	A	A	B	allowed for PCR amplification	
KOD H147E/P36H: KOD H147E (exo(+)) mutant with P36H	A	B	B	C		
KOD N210D/Y7A/P36H: KOD N210D (exo(−)) mutant with Y7A and P36H	A	A	A	A		
KOD I142R/Y7A/P36H: KOD I142R (exo(−)) mutant with Y7A and P36H	A	A	A	C		
KOD H147E/V93R: KOD H147E (exo(+)) mutant with V93R	A	B	B	B		
KOD D141A/E143A/P36H: KOD D141A/E143A (exo(−)) mutant with P36H	A	A	A	A		
KOD H147E/P36R/V93K: KOD H147E (exo(+)) mutant with P36R and V93K	C	C	C	C		
KOD P36R/V93K: modified KOD DNA polymerase with P36R and V93K	C	C	C	C		
KOD I142R/Y7A/V93K: KOD I142R (exo(−)) mutant with Y7A and V93K	A	A	A	A		
